Test results as given in patent US11718618B2, “Substituted pyrido[2,1-a]isoquinolines as VMAT2 inhibitors” (priority 2021, dated 2023).

Tests used:
[1] = once formed, in patients administered (±)-TBZ; cited from earlier work
male Sprague-Dawley rats = assay: Open-field hypolocomotion / locomotor activity (LMA) assay; assay type: in vivo; conditions: Rattus norvegicus, pre-treatment 60 or 120 minutes, beam breaks in 30 min, read-out: ED50, reduction of locomotor activity
Protocol: The effect of VMAT2 inhibitors on dopamine depletion was measured using the locomotor activity (LMA) assay. Following a pre-treatment time of 60 or 120 minutes, male Sprague-Dawley rats (200-250 g) were placed in a clear cage surrounded by photocell detectors (San Diego Instruments). Rat locomotor activity was detected by breaks in the photocell beams and activity is defined as the number of beam breaks in 30 min. Data was analyzed by one-way analysis of variance (ANOVA; SigmaStat version 3.0.1, SPSS, Chicago, Ill.) followed by the Student Newman Keuls post-hoc test for significance.

human VMAT2 = human VMAT2 (Homo sapiens (Human), UniProt Q05940); assay: VMAT2 radioligand binding, 3H-dihydrotetrabenazine competition on human platelet homogenate; conditions: 10 nM 3H-dihydrotetrabenazine, human platelet homogenate, 25° C., 90 minutes; read-out: VMAT2 Ki
Sequence of human VMAT2 (Q05940 whole entry): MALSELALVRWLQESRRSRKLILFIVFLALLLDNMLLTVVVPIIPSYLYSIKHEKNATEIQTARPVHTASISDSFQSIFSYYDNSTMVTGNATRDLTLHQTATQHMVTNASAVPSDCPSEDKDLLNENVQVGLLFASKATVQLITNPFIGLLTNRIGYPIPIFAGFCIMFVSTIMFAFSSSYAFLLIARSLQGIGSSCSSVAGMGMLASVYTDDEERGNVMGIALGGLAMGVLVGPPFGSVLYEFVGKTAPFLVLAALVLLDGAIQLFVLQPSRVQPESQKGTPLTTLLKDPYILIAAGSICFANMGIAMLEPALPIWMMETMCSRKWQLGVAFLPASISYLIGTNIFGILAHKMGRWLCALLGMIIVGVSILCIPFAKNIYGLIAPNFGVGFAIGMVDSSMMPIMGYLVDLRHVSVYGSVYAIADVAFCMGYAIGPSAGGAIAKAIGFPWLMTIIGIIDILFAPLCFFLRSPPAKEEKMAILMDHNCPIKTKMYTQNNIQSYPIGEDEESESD
Procedure, shortened: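 Human platelet homogenate (30 μg membrane protein/well) in DPBS with 1 mM EDTA, pH 7.4; twelve test-compound concentrations competed against 10 nM ³H-dihydrotetrabenazine. Incubated 90 min at 25 °C, bound radioligand collected by filtration on PEI-pretreated glass-fibre filters and counted by scintillation; Ki derived.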

male Wistar rats = assay: Conditioned avoidance response (CAR) assay of antipsychotic activity; assay type: in vivo, rat
Protocol: Animals: Adult male Wistar rats from Envigo (Indianapolis, Ind.) were used in this study. Rats were received at approximately 150 g, assigned unique identification numbers and group housed 2-3 per cage in ventilated cages. All rats were examined, handled, and weighed prior to initiation of the study to assure adequate health and suitability. During the course of the study, 12/12 light/dark cycles were maintained. The RT was maintained between 20° C. and 23° C. with a relative humidity around 50%. Chow and water were provided ad libitum for the duration of the study. All testing was conducted during the light cycle of the rats.
Compound 4-1 (0.03, 0.1, 0.3, and 1 mg/kg) was formulated in 0.25% methyl cellulose and administered orally at a dose volume of 3 mL/kg 120 minutes prior to test.
Compound 4-15 (0.03, 0.1, 0.3, and 1 mg/kg) was formulated in 0.25% methyl cellulose and administered orally at a dose volume of 3 mL/kg 120 minutes prior to test.
In the CAR paradigm, an animal is trained to respond to a conditioned stimulus (auditory and visual) by negative reinforcement (foot shock). Numerous studies have shown that typical and atypical antipsychotic drugs selectively suppress CAR, thus making it an ideal assay to screen potential antipsychotic compounds (Wadenberg & Hicks, Neuroscience and Biobehavioral Reviews, (1999) 23:851-862).
Rats were placed in the CAR two-way shuttle box and the training period of 20 trials ensued. A trial consisted of a 10-sec presentation of an 80 dB white noise followed by a scrambled 0.6 mA foot shock lasting up to 20 sec. The inter-trial interval ranged from 20-60 sec. The rat learned to avoid shock by moving from one compartment to the other when the cue is presented. […] The following measures were captured from the assay:
Avoidance response: If the rat moved from one compartment to the other during the cued-stimulus (CS) presentation. Decreased avoidance responding is the typical signature of an efficacious dose of an antipsychotic.
Avoidance response data were expressed as the number of avoidance responses as well as percent of avoidance responses based on the three baseline responses prior to drug test. Escape failures were expressed as the total number of failures during the test session.
Body weight and avoidance data were analyzed by analysis of variance (ANOVA) followed by Dunnett's post-hoc comparisons when appropriate. Escape failures were analyzed by Kruskal-Wallis nonparametric analysis followed by Dunn's post hoc comparisons when appropriate. Results are reported as mean SEM. An effect was considered statistically significant if p<0.05.

[2] = Stability of compounds in human liver microsomes; assay type: in vitro ADME
Procedure, shortened: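 Compound at 0.5 μM incubated at 37 °C with pooled mixed-gender human liver microsomes (0.5 mg/mL protein) and an NADPH-generating system in pH 7.4 phosphate buffer, sampled 0–60 min. Parent depletion tracked by LC-MS/MS; t1/2 derived from the slope by non-linear regression, with predicted extraction ratio and maximum bioavailability also calculated.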

VMAT2 = conditions: Scherman et al. 1983; read-out: IC50, inhibition of catecholamine uptake by VMAT2; cited from earlier work

## COc1cc2c(cc1OC)C1CC(O)C(CC(C)C)CN1CC2 (stereo not drawn) [[+]-beta-DHTBZ, 3-isobutyl-9,10-dimethoxy-1,3,4,6,7,11b-hexahydro-2H-pyrido[2,1-a]isoquinolin-2-ol]
[1]
  half-life: approximately 5 hours

## COc1cc2c(cc1OCCC(F)(F)F)CCN1C[C@@H](CC(C)(C)C)[C@H](O)C[C@H]21 [Compound 4-15, (2R,3R,11bR)-3-(2,2-dimethylpropyl)-10-methoxy-9-(3,3,3-trifluoropropoxy)-1H,2H,3H,4H,6H,7H,11bH-pyrido[2,1-a]isoquinolin-2-ol]
Male Sprague-Dawley rats
  ED50: 0.18 mg/kg
Human VMAT2
  Ki: 1.1 nM
Male Wistar rats; 0.3 mg/kg, oral, Wistar rats
  Avoidance and escape failures: reduction in avoidance without significant increase in escape failures
Male Wistar rats; Rattus norvegicus, read-out: ED50, conditioned avoidance response
  ED50: 0.44 mg/kg
[2]; both sexes, liver microsomes, pH 7.4, calculated from HLM half-life, human, read-out: HLM Scaled Intrinsic Clearance
  CLint scaled at 0.5 μM: 4.05 mL/min/kg
[2]; both sexes, pH 7.4, 0.5 μM compound, 0.5 mg/mL human liver microsomes, 37° C., maxed at 420 minutes, read-out: HLM Elimination half-life (t1/2, min)
  half-life at 0.5 μM: 308 min
[2]; predicted from HLM data, human
  Predicted Max. Bioavailability (% F): 83 % F
[2]; scaled from HLM half-life (Obach method), human
  HLM Predicted Systemic Clearance: 3.37 mL/min/kg
